How the values were obtained:
Format in all cases: in vivo, mouse
ICAM-1 = ICAM-1 expression at the choroid plexus after EAE induction (immunohistochemistry); details: wild type mice, day 15 post-EAE induction; 2 mg/kg daily; vs DMSO
Experimental: Mice were treated with the A2a adenosine receptor antagonist SCH58261 2 mg/kg (1 mg/kg given s.c. and 1 mg/kg given i.p.) in DMSO (n=4 mice/group) or DMSO alone (n=5 mice/group) 1 day prior to and daily up to day 30 following EAE induction. […] Frozen tissue sections from day 15 post-EAE induction in SCH58261 and DMSO treated mice were examined for ICAM-1 expression at the choroid plexus. WT treated DMSO (left) or SCH58261 (right) and stained for ICAM-1 (red staining, white arrows) and DAPI (blue, nuclei) at 40× magnification. Images are from 4 separate mice.
Anesthetized mice were perfused with PBS, and brains, spleens, and spinal cords were isolated and snap frozen in Tissue Tek-OCT medium. […]
(§1) As CD73 catalyzes the breakdown of AMP to adenosine and ARs are expressed in the CNS (Tsutsui et al., “A1 Adenosine Receptor Upregulation and Activation Attenuates Neuroinflammation and Demyelination in a Model of Multiple Sclerosis,” J. Neurosci. 24:1521-1529 (2004)); Rosi et al., The Influence of Brain Inflammation Upon Neuronal Adenosine A2B Receptors,” J. Neurochem. 86:220-227 (2003), which are hereby incorporated by reference in their entirety), it was next determined if AR signaling is important during EAE progression. […] Since CD73 is highly expressed on the choroid plexus (FIG. 6C), it was next determined if ARs are also expressed on the choroid plexus. […]

blood brain barrier = experiment: FITC-Dextran extravasation through the brain endothelium; details: wild type mice (FIG. 16)
Experimental: In order to examine the effects of caffeine, a general adenosine receptor antagonist, on blood brain barrier permeability, mice were fed caffeine for several days and then injected with FITC Dextran, commonly used to assess endothelial permeability.
More particularly, mice were fed 0.6 g/l caffeine (Sigma, St. Louis, Mo.) in water or regular water ad lib for five days. Mice were injected IP with FITC Dextran (10,000 MW, Molecular Probes, Eugene, Oreg.) and after 30 minutes mice were perfused with ice cold PBS via the left ventricle. Brains were removed and snap frozen in OCT (Tissue Tek, Torrance, Calif.) and stored at −80° C. until sectioning. Tissue sections (5 μm) were stained with hematoxylin for light microscopy and with DAPI for a fluorescent counterstain.

[1] = tested on: CNS lymphocyte infiltration; experiment: CD4+ infiltrating lymphocytes in brain and spinal cord after EAE induction (immunohistochemistry); details: wild type mice, day 15 post-EAE induction; 2 mg/kg daily; vs DMSO treated mice
Experimental: FIGS. 7A-7D show adenosine receptor blockade protects mice from EAE development. […] Results are from one experiment (n=5 mice per group). […] Samples were run in triplicate; error bars represent the standard error of the mean. […] Eight anatomically similar fields per brain and 4 fields per spinal cord per mouse were analyzed at 10×magnification (n=4 mice). Error bars represent the standard error of the mean.
Anesthetized mice were perfused with PBS, and brains, spleens, and spinal cords were isolated and snap frozen in Tissue Tek-OCT medium. Five μm sections (brains in a sagittal orientation) were affixed to Supefrost/Plus slides (Fisher), fixed in acetone, and stored at −80° C. […]
as §1

EAE-induced mice = experiment: EAE induction and scoring (MOG35-55/CFA + pertussis toxin); details: wild type mice; 2 mg/kg (1 mg/kg s.c. and 1 mg/kg i.p.) in 45% DMSO, 1 day prior to and daily for 30 days; vs DMSO alone
Experimental: C57BL/6 and tcrα^−/− mice on the C57BL/6 background were purchased from The Jackson Laboratories. Mice were bred and housed under specific pathogen-free conditions at Cornell University or the University of Turku. For adenosine receptor blockade experiments, mice were given drinking water supplemented with 0.6 g/L of caffeine (Sigma) or 2 mg/kg SCH58261 (1 mg/kg s.c. and 1 mg/kg i.p.) in DMSO (45% vol. in PBS) or 45% DMSO alone starting 1 day before EAE induction and continuing throughout the experiment. All procedures performed on mice were approved by the relevant animal review committee.
EAE was induced by subjecting mice to the myelin oligodendrocyte glycoprotein (“MOG”) EAE-inducing regimen as described in Swanborg, “Experimental Autoimmune Encephalomyelitis in Rodents as a Model for Human Demyelinating Disease,” Clin. Immunol. […] Briefly, a 1:1 emulsion of MOG35-55 peptide (3 mg/ml in PBS) (Invitrogen) and complete Freund's adjuvant (CFA, Sigma) was injected subcutaneously (50 μl) into each flank. Pertussis toxin (PTX, 20 ng) (Biological Laboratories Inc.) was given intravenously (200 μl in PBS) at the time of immunization and again 2 days later. Mice were scored daily for EAE based on disease symptom severity; 0=no disease, 0.5 -1=weak/limp tail, 2=limp tail and partial hind limb paralysis, 3=total hind limb paralysis, 4=both hind limb and fore limb paralysis, 5=death. Mice with a score of 4 were euthanized.
Wild type mice were given 1 mg/kg of SCH58261 in DMSO or DMSO alone both i.p. and s.c. (for a total of 2 mg/kg) 1 day prior to EAE induction and daily for 30 days throughout the course of the experiment (FIG. 7C).

In the case of `Nc1nc2c(cnn2CCc2ccccc2)c2nc(-c3ccco3)nn12` [SCH58261], the “ICAM-1 up regulation on the choroid plexus” value (ICAM-1) was “prevented the up regulation of ICAM-1”, the “FITC-Dextran extravasation across the blood brain barrier” value (blood brain barrier) was “inhibit FITC-Dextran extravasation” and the “frequency of CD4 lymphocytes in the brain and spinal cord” value [1] was “significantly lower frequency of CD4 lymphocytes in the brain and spinal cord”. For the same compound, the “EAE development (mean EAE score)” value (EAE-induced mice) was “dramatically protected against EAE development”.

— US20190083497A1, “MODULATION OF BLOOD BRAIN BARRIER PERMEABILITY” (Cornell University, priority 2008, published 2019)
